Values of other authors in publication PMC6444188, “Systemic Administration of Avian Defensin 7: Distribution, Cellular Target, and Antibacterial Potential in Mice” (Frontiers in Microbiology, 2019).
Ends that are not written are not given here.

Tests used:
S. Typhimurium = test system: S. Typhimurium
Source text: The ability of AvBD7 to reduce bacterial load in the liver of Salmonella-infected animals is in agreement with the distribution of this defensin to this organ. Indeed, even if most part of the fluorescence-labeled AvBD7 injected in the peritoneal cavity of mice reached bloodstream, kidneys and was eliminated through the urinary tract, a substantial amount was found in the liver, the second most fluorescent organ after the kidneys.

S. Typhi = conditions: intraperitoneal mouse model of salmonellosis; ref Maiti et al., 2014
Source text: There is a lack of knowledge on the ability of defensins to exert antimicrobial activity toward MDR bacterial strains. […] There are several mouse salmonellosis models available to assess vaccine and antimicrobials efficacy ([Higginson et al., 2016]). These range from models of colonization or lethality, through infection by the oral, ...

proteases = test system: proteases
Source text: AvBDs are characterized by cationicity and structure with the typical beta-sheet stabilized by three disulfide bonds between six highly conserved cysteines while primary sequences are diverse ([Derache et al., 2012]).

[1] = 30 mg/kg i.p., S. Typhimurium-infected mice, ref Benincasa et al., 2010

Substance: Bac7: proline-rich antimicrobial peptide (RRIRPRPPRLPRPRPRPLPFPRPGPRPIPRPLPFP; Bac7; UniProt P19661 131-165, looked up, fragment)
- effect on liver bacterial load (S. Typhimurium; [1]): without significant reduction of the liver bacterial load
- effect on mice survival (S. Typhimurium; [1]): beneficial effect on mice survival
- time to elimination following i.p. injection (S. Typhimurium; mouse, in vivo, ip): ≤ 5 h

Substance: HBD1: human beta-defensin (DHYNCVSSGGQCLYSACPIFTKIQGTCYRGKAKCCK; ends and bridges not checked; cysteine pairing not given here; UniProt P60022 33-68, looked up)
- effect on disease and bacterial load (S. Typhi): efficient in attenuating the disease and the bacterial load

Substance: HBD3: human beta-defensin (GIINTLQKYYCRVRGGRCAVLSCLPKEEQIGKCSTRGRKCCRRKK; ends and bridges not checked; cysteine pairing not given here; UniProt P81534 23-67, looked up)
- stability toward proteases (proteases): can be inactivated by proteases
